# In patent US4575554A, “Substituted 2-pyridylmethylthio- and sulfinyl-benzimidazoles as gastric antisecretory agents” (The Upjohn Company, priority 1984, dated 1986):
# What was measured:
# [1] = tested on: gastric acid secretion; experiment: inhibition of gastric acid secretion in the rat, duration of activity after subcutaneous administration; assay type: in vivo; conditions: after 6 days, 50 mg/kg
# From the text: A significant advantage of certain of the compounds of the instant invention, particularly those of the Formula I wherein R1 is hydrogen, X is =S(O), R3 is methyl or ethyl, R4 is hydrogen, and R2 is methylthio, ethylthio, or propylthio, is their long duration of activity when administered subcutaneously. Thus, even after 6 days 2[(4-ethylthio-3-ethylpyridin-2-ylmethyl)sulfinyl]-benzimidazole and 2-[(4-ethylthio-3-methylpyridin-2-ylmethyl)sulfinyl]-benzimidazole inhibited gastric acid secretion in the rat 68 and 82%, respectively, when administered subcutaneously at a dose of 50 mg/kg.
# [2] = target: T1, (H^+ -K^+)ATPase (Rattus norvegicus, UniProt P09626); experiment: in vivo inactivation of (H^+ -K^+)ATPase in the rat; conditions: shown to be the most effective
# T1 construct: from tissue; host or cells: rat, in vivo (endogenous enzyme)
# [3] = target: T2, gastric(H^+ -K^+)ATPase (Sus scrofa, UniProt P19156); experiment: inhibition of K^+ -dependent ATP hydrolysis by isolated hog gastric membranes enriched with gastric (H^+ -K^+)ATPase; assay type: biochemical; conditions: shown to be the most effective, read-out: ID50 (the source's name)
# T2 construct: isolated hog gastric membranes enriched with gastric(H^+ -K^+)ATPase; from tissue; host or cells: hog gastric membranes
# [4] = tested on: isolated gastric glands; experiment: inhibition of acid secretion in isolated gastric glands of the rabbit; assay type: cell-based; conditions: Oryctolagus cuniculus, shown to be the most effective, read-out: ID50 (the source's name)
# T1 sequence (P09626 2-1033 limits assumed): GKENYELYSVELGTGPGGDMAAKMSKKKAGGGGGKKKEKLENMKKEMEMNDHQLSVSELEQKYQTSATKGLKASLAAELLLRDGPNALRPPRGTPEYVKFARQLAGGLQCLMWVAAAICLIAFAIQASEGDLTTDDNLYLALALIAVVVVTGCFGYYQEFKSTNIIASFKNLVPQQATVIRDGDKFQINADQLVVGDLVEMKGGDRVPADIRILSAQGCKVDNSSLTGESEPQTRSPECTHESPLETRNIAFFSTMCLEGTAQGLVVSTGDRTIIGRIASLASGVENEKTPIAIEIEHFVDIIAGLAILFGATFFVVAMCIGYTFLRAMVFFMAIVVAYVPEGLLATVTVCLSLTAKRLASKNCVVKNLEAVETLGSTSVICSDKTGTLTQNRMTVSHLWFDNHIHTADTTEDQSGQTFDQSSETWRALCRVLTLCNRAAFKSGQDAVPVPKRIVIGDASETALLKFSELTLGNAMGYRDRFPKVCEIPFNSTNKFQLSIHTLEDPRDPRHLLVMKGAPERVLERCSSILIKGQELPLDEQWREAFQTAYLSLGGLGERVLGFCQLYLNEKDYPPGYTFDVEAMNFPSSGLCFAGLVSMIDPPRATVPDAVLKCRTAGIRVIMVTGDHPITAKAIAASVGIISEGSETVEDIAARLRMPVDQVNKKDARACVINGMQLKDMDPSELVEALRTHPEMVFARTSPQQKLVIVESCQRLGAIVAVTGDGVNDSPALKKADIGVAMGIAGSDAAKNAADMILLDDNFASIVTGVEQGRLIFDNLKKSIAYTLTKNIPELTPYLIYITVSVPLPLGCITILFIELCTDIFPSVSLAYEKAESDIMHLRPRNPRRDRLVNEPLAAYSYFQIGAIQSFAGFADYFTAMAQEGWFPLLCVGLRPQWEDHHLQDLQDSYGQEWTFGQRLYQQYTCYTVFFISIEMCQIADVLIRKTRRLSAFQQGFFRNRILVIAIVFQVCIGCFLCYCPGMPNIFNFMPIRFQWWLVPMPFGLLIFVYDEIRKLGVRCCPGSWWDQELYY
# T1 sequence (P18598 whole entry partner): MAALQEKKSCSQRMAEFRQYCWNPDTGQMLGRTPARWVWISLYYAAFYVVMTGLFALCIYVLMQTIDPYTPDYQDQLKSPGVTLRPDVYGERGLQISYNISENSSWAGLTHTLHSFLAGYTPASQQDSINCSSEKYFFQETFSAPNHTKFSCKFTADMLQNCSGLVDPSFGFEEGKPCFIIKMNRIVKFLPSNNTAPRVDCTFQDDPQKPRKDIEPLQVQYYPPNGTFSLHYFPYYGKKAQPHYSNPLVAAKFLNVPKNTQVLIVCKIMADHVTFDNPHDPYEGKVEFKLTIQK
# T2 sequence (P19156 2-1034 limits assumed): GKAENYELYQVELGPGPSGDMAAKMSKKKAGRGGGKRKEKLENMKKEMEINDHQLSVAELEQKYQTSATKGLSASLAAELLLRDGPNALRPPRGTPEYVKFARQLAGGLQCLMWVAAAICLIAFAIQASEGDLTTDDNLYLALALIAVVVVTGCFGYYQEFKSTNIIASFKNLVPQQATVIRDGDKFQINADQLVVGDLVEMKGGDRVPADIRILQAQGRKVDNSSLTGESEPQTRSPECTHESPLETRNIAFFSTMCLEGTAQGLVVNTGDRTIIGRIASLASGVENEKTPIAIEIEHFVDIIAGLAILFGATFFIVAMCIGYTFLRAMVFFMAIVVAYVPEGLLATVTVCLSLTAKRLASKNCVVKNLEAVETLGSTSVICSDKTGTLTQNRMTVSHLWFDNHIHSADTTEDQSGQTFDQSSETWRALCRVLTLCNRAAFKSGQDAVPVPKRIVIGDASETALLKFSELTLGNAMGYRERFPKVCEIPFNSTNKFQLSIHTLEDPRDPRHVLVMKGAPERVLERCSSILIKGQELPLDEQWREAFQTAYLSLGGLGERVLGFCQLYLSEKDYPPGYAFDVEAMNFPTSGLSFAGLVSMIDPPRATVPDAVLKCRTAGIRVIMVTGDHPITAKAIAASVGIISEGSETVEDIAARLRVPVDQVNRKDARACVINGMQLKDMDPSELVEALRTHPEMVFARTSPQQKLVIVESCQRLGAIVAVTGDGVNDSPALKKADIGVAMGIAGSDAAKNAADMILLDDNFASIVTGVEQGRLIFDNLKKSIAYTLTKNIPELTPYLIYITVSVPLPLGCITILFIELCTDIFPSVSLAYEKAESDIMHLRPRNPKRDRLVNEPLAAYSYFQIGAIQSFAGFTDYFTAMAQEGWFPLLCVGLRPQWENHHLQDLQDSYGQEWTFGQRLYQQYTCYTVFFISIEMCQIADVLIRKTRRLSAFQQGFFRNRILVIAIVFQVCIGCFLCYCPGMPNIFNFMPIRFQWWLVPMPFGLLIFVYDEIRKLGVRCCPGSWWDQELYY
# T2 sequence (P18434 whole entry partner): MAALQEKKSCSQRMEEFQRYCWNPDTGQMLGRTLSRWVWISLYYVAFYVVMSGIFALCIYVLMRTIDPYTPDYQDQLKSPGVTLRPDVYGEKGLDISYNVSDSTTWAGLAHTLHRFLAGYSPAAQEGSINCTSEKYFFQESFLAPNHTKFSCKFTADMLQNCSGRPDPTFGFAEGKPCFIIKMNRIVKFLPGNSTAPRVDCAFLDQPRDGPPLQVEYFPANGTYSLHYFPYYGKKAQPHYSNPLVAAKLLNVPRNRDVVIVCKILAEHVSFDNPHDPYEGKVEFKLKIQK
IC50 [3] [nM],IC50 [4] [nM],SMILES,inhibition of gastric acid secretion [1] [%],ED50 [2] [mg/kg]
,,"CCSc1ccnc(C[S+]([O-])c2nc3ccccc3[nH]2)c1C (centres unmarked) [Compound 7, 2-[(4-ethylthio-3-methylpyridin-2-ylmethyl)sulfinyl]-benzimidazole]",82,1
3000,,"CCc1c(OC)ccnc1C[S+]([O-])c1nc2ccccc2[nH]1 (centres unmarked) [Compound 15, 2-[(4-methoxy-3-ethylpyridin-2-ylmethyl)sulfinyl]-benzimidazole]",,
,100,"CCSc1ccnc(C[S+]([O-])c2nc3ccccc3[nH]2)c1CC (centres unmarked) [Compound 12, 2-[(4-ethylthio-3-ethylpyridin-2-ylmethyl)sulfinyl]-benzimidazole]",68,
